Source: ChEMBL document CHEMBL1275553, “Pyrosequencing to detect mutations in FKS1 that confer reduced echinocandin susceptibility in Candida albicans” (2008)
In brackets after ≈: the same amount, converted by molar mass. Starred links: 1 amine or outer side, 2 acyl side, 3 side chain; linkers in the order of their positions; H or OH if unused. Positions of bridges follow the written chain, without caps; N, C: chain ends. Non-standard residues stand in square brackets, D forms with d. Residues, ends and D or L forms follow the SMILES beside them. *: point of attachment. hTyr(3S-OH,4S-OH,3'-OSO3H) = N[C@H](C(=O)O)[C@H](O)[C@@H](O)c1ccc(O)c(OS(=O)(=O)O)c1; pTerphenylCO(4''-OnC5H11) = CCCCCOc1ccc(-c2ccc(-c3ccc(C(=O)*)cc3)cc2)cc1; Orn(4R-OH,5R-OH) = O=C([C@H](C[C@@H](O)[C@@H](O)N[*:3])N[*:1])[*:2]; hTyr(3S-OH,4S-OH) = N[C@H](C(=O)O)[C@H](O)[C@@H](O)c1ccc(O)cc1; Pro(3S-OH,4S-Me) = C[C@H]1CN[C@H](C(=O)O)[C@H]1O; X1 = CCCCCOc1ccc(-c2cc(-c3ccc(C(=O)*)cc3)no2)cc1; Gln(3R-OH) = NC(=O)C[C@@H](O)[C@H](N)C(=O)O; Hyp = O=C(O)[C@@H]1C[C@@H](O)CN1

Columns and labels:
Format in all cases: functional
Candida albicans [1] = assay: Antifungal activity against Candida albicans 42379 expressing FKS1 F645P mutant after 24 hrs by broth microdilution method; conditions: Candida albicans, 42379, 24 h
Candida albicans [2] = assay: Antifungal activity against Candida albicans 4715 expressing FKS1 F641S mutant after 24 hrs by broth microdilution method; conditions: Candida albicans, 4715, 24 h
Candida albicans [3] = assay: Antifungal activity against Candida albicans 43001 expressing FKS1 F641S mutant after 24 hrs by broth microdilution method in presence of 50% human serum; conditions: Candida albicans, 43001, 24 h
Candida albicans [4] = assay: Antifungal activity against Candida albicans 41301 expressing FKS1 F641S mutant after 24 hrs by broth microdilution method in presence of 50% human serum; conditions: Candida albicans, 41301, 24 h
Candida albicans [5] = assay: Antifungal activity against Candida albicans 41509 expressing FKS1 F641S mutant after 24 hrs by broth microdilution method; conditions: Candida albicans, 41509, 24 h
Candida albicans [6] = assay: Antifungal activity against Candida albicans 5415 expressing FKS1 F645P/H mutant after 24 hrs by broth microdilution method; conditions: Candida albicans, 5415, 24 h
Candida albicans [7] = assay: Antifungal activity against Candida albicans 42379 expressing FKS1 F645P mutant after 24 hrs by broth microdilution method in presence of 50% human serum; conditions: Candida albicans, 42379, 24 h
Candida albicans [8] = assay: Antifungal activity against Candida albicans 4254 expressing FKS1 F641S mutant after 24 hrs by broth microdilution method; conditions: Candida albicans, 4254, 24 h
Candida albicans [9] = assay: Antifungal activity against Candida albicans 32746 expressing FKS1 F641S mutant after 24 hrs by broth microdilution method; conditions: Candida albicans, 32746, 24 h
Candida albicans [10] = assay: Antifungal activity against Candida albicans 41509 expressing FKS1 F641S mutant after 24 hrs by broth microdilution method in presence of 50% human serum; conditions: Candida albicans, 41509, 24 h
Candida albicans [11] = assay: Antifungal activity against Candida albicans 42286 expressing wild type FKS1 after 24 hrs by broth microdilution method in presence of 50% human serum; conditions: Candida albicans, 42286, 24 h
Candida albicans [12] = assay: Antifungal activity against Candida albicans SC5314 expressing wild type FKS1 after 24 hrs by broth microdilution method; conditions: SC5314, 24 h
Candida albicans [13] = assay: Antifungal activity against Candida albicans 4715 expressing FKS1 F641S mutant after 24 hrs by broth microdilution method in presence of 50% human serum; conditions: Candida albicans, 4715, 24 h
Candida albicans [14] = assay: Antifungal activity against Candida albicans SC5314 expressing wild type FKS1 after 24 hrs by broth microdilution method in presence of 50% human serum; conditions: SC5314, 24 h
Candida albicans [15] = assay: Antifungal activity against Candida albicans 53264 expressing FKS1 F645P mutant after 24 hrs by broth microdilution method in presence of 50% human serum; conditions: Candida albicans, 53264, 24 h
Candida albicans [16] = assay: Antifungal activity against Candida albicans 4254 expressing FKS1 F641S mutant after 24 hrs by broth microdilution method in presence of 50% human serum; conditions: Candida albicans, 4254, 24 h
Candida albicans [17] = assay: Antifungal activity against Candida albicans 5415 expressing FKS1 F645P/H mutant after 24 hrs by broth microdilution method in presence of 50% human serum; conditions: Candida albicans, 5415, 24 h
Candida albicans [18] = assay: Antifungal activity against Candida albicans 2762 expressing FKS1 F641S mutant after 24 hrs by broth microdilution method; conditions: Candida albicans, 2762, 24 h
Candida albicans [19] = assay: Antifungal activity against Candida albicans 42286 expressing wild type FKS1 after 24 hrs by broth microdilution method; conditions: Candida albicans, 42286, 24 h
Candida albicans [20] = assay: Antifungal activity against Candida albicans 32746 expressing FKS1 F641S mutant after 24 hrs by broth microdilution method in presence of 50% human serum; conditions: Candida albicans, 32746, 24 h
Candida albicans [21] = assay: Antifungal activity against Candida albicans 41301 expressing FKS1 F641S mutant after 24 hrs by broth microdilution method; conditions: Candida albicans, 41301, 24 h
Candida albicans [22] = assay: Antifungal activity against Candida albicans 42996 expressing FKS1 F641S mutant after 24 hrs by broth microdilution method; conditions: Candida albicans, 42996, 24 h
Candida albicans [23] = assay: Antifungal activity against Candida albicans 42996 expressing FKS1 F641S mutant after 24 hrs by broth microdilution method in presence of 50% human serum; conditions: Candida albicans, 42996, 24 h
Candida albicans [24] = assay: Antifungal activity against Candida albicans 2762 expressing FKS1 F641S mutant after 24 hrs by broth microdilution method in presence of 50% human serum; conditions: Candida albicans, 2762, 24 h
Candida albicans [25] = assay: Antifungal activity against Candida albicans 43001 expressing FKS1 F641S mutant after 24 hrs by broth microdilution method; conditions: Candida albicans, 43001, 24 h
Candida albicans [26] = assay: Antifungal activity against Candida albicans 53264 expressing FKS1 F645P mutant after 24 hrs by broth microdilution method; conditions: Candida albicans, 53264, 24 h

SMILES | MIC (Candida albicans [1]) | MIC (Candida albicans [2]) | MIC (Candida albicans [3]) | MIC (Candida albicans [4]) | MIC (Candida albicans [5]) | MIC (Candida albicans [6]) | MIC (Candida albicans [7]) | MIC (Candida albicans [8]) | MIC (Candida albicans [9]) | MIC (Candida albicans [10]) | MIC (Candida albicans [11]) | MIC (Candida albicans [12]) | MIC (Candida albicans [13]) | MIC (Candida albicans [14]) | MIC (Candida albicans [15]) | MIC (Candida albicans [16]) | MIC (Candida albicans [17]) | MIC (Candida albicans [18]) | MIC (Candida albicans [19]) | MIC (Candida albicans [20]) | further results
CCCCCOc1ccc(-c2ccc(-c3ccc(C(=O)N[C@H]4C[C@@H](O)[C@@H](O)NC(=O)[C@@H]5[C@@H](O)[C@@H](C)CN5C(=O)[C@H]([C@@H](C)O)NC(=O)[C@H]([C@H](O)[C@@H](O)c5ccc(O)cc5)NC(=O)[C@@H]5C[C@@H](O)CN5C(=O)[C@H]([C@@H](C)O)NC4=O)cc3)cc2)cc1 [ANIDULAFUNGIN] ({pTerphenylCO(4''-OnC5H11)}-[Orn(4R-OH,5R-OH)]T[Hyp][hTyr(3S-OH,4S-OH)]T[Pro(3S-OH,4S-Me)]; lactam 1-C) | 0.5 mg/L (≈ 0.438 µM) | 0.25 mg/L (≈ 0.219 µM) | 4 mg/L | 8 mg/L | 0.5 mg/L (≈ 0.438 µM) | 1 mg/L (≈ 0.877 µM) | 8 mg/L | 0.125 mg/L (≈ 0.11 µM) | 0.25 mg/L (≈ 0.219 µM) | 8 mg/L | 1 mg/L | 0.03 mg/L (≈ 0.0263 µM) | 8 mg/L | 0.5 mg/L | 32 mg/L | 2 mg/L | 16 mg/L | 0.5 mg/L (≈ 0.438 µM) | 0.125 mg/L (≈ 0.11 µM) | 8 mg/L | MIC (Candida albicans [21]): 0.25 mg/L (≈ 0.219 µM); MIC (Candida albicans [22]): 0.125 mg/L (≈ 0.11 µM); MIC (Candida albicans [23]): 4 mg/L; MIC (Candida albicans [24]): 4 mg/L; MIC (Candida albicans [25]): 0.5 mg/L (≈ 0.438 µM); MIC (Candida albicans [26]): 1 mg/L (≈ 0.877 µM)
CC[C@H](C)C[C@H](C)CCCCCCCCC(=O)N[C@H]1C[C@@H](O)[C@@H](NCCN)NC(=O)[C@@H]2[C@@H](O)CCN2C(=O)[C@H]([C@H](O)CCN)NC(=O)[C@H]([C@H](O)[C@@H](O)c2ccc(O)cc2)NC(=O)[C@@H]2C[C@@H](O)CN2C(=O)[C@H]([C@@H](C)O)NC1=O [CASPOFUNGIN] | 8 mg/L (≈ 7.32 µM) | 2 mg/L (≈ 1.83 µM) | 8 mg/L | 8 mg/L | 4 mg/L (≈ 3.66 µM) | 8 mg/L (≈ 7.32 µM) | > 32 mg/L | 2 mg/L (≈ 1.83 µM) | 4 mg/L (≈ 3.66 µM) | 8 mg/L | 4 mg/L | 0.125 mg/L (≈ 0.114 µM) | 8 mg/L | 0.25 mg/L | > 32 mg/L | 4 mg/L | 32 mg/L | 4 mg/L (≈ 3.66 µM) | 2 mg/L (≈ 1.83 µM) | 4 mg/L | MIC (Candida albicans [21]): 4 mg/L (≈ 3.66 µM); MIC (Candida albicans [22]): 4 mg/L (≈ 3.66 µM); MIC (Candida albicans [23]): 8 mg/L; MIC (Candida albicans [24]): 8 mg/L; MIC (Candida albicans [25]): 4 mg/L (≈ 3.66 µM); MIC (Candida albicans [26]): 4 mg/L (≈ 3.66 µM)
CCCCCOc1ccc(-c2cc(-c3ccc(C(=O)N[C@H]4C[C@@H](O)[C@@H](O)NC(=O)[C@@H]5[C@@H](O)[C@@H](C)CN5C(=O)[C@H]([C@H](O)CC(N)=O)NC(=O)[C@H]([C@H](O)[C@@H](O)c5ccc(O)c(OS(=O)(=O)O)c5)NC(=O)[C@@H]5C[C@@H](O)CN5C(=O)[C@H]([C@@H](C)O)NC4=O)cc3)no2)cc1 [MICAFUNGIN] (X1-[Orn(4R-OH,5R-OH)]T[Hyp][hTyr(3S-OH,4S-OH,3'-OSO3H)][Gln(3R-OH)][Pro(3S-OH,4S-Me)]; lactam 1-C) | 4 mg/L (≈ 3.15 µM) | 1 mg/L (≈ 0.787 µM) | 16 mg/L | 16 mg/L | 0.5 mg/L (≈ 0.394 µM) | 1 mg/L (≈ 0.787 µM) | > 32 mg/L | 0.5 mg/L (≈ 0.394 µM) | 1 mg/L (≈ 0.787 µM) | 32 mg/L | 8 mg/L | 0.06 mg/L (≈ 0.0472 µM) | 16 mg/L | 1 mg/L | > 32 mg/L | 8 mg/L | 32 mg/L | 1 mg/L (≈ 0.787 µM) | 1 mg/L (≈ 0.787 µM) | 16 mg/L | MIC (Candida albicans [21]): 0.5 mg/L (≈ 0.394 µM); MIC (Candida albicans [22]): 1 mg/L (≈ 0.787 µM); MIC (Candida albicans [23]): 32 mg/L; MIC (Candida albicans [24]): 16 mg/L; MIC (Candida albicans [25]): 2 mg/L (≈ 1.57 µM); MIC (Candida albicans [26]): 4 mg/L (≈ 3.15 µM)
